Data taken from patent publication US6512000B1, “Aminocarbonyl-substituted benzimidazoles having tryptase-inhibitory activity” (Boehringer Ingelheim Pharma KG, priority 1999, dated 2003).

Molecular target: T1, rh beta tryptase (Homo sapiens, UniProt P20231)
T1 construct: purchased Promega
Assay: Tryptase inhibition test (cleavage of N-p-tosyl-Gly-Pro-Lys-para-nitroaniline, p-nitroaniline measured at 405 nm)
Assay type: biochemical
Settings: concentration at which 50% of the tryptase enzyme activity is inhibited; substrate 0.6 mM, pH 7.4, 37° C.
Outline: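 Recombinant human beta tryptase (0.91 U/ml) in 100 mM Tris HCl pH 7.4 with 5 mM calcium and 100 mg/ml heparin; compounds pre-incubated 5 min, then 0.6 mM tosyl-Gly-Pro-Lys-pNA added, 5 min at 37 °C. p-Nitroaniline read at 405 nm; % inhibition at 10 μM, IC50 determined when inhibition exceeded 70%.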

T1 sequence (P20231 31-275): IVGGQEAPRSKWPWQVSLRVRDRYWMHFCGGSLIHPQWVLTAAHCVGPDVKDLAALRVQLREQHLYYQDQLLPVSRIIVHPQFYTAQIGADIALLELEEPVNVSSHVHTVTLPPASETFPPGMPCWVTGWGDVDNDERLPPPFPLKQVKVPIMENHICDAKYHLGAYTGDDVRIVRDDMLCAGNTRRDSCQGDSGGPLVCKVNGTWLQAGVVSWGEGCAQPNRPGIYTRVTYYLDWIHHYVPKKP

| SMILES | IC50 [µM] |
| --- | --- |
| CCOCCCn1c(CCc2ccc(C(=N)N)cc2)nc2cc(C(=O)N(Cc3ccc(CN)cc3)Cc3cccc(C(F)(F)F)c3)ccc21 [Example 198, 2-[2-(4-amidinophenyl)ethyl]-1-(3-ethoxypropyl)-benzimidazol-5-yl-carboxylic acid-N-[4-(amino-methyl)-benzyl]-N-(3-trifluoromethylbenzyl)-amide] | 0.458 |
| N=C(N)c1ccc(CCc2nc3cc(C(=O)N(Cc4ccc(CN)cc4)Cc4cccc(C(F)(F)F)c4)ccc3n2CC2CC2)cc1 [Example 202, 2-[2-(4-amidinophenyl)ethyl]-1-cyclopropylmethyl-benzimidazol-5-yl-carboxylic acid-N-[4-(amino-methyl)-benzyl]-N-(3-trifluoromethylbenzyl)-amide] | 0.822 |
| CCOCCCn1c(CCc2ccc(C(=N)N)cc2)nc2cc(C(=O)N(Cc3ccc(CN)cc3)Cc3ccccc3F)ccc21 [Example 214, 2-[2-(4-amidinophenyl)ethyl]-1-(3-ethoxypropyl)-benzimidazol-5-yl-carboxylic acid-N-[4-(amino-methyl)-benzyl]-N-(2-fluorobenzyl)-amide] | 0.335 |
| CCOCCCn1c(CCc2ccc(C(=N)N)cc2)nc2cc(C(=O)N(Cc3ccc(CN)cc3)Cc3ccc4ccccc4c3)ccc21 [Example 230, 2-[2-(4-amidinophenyl)ethyl]-1-(3-ethoxypropyl)-benzimidazol-5-yl-carboxylic acid-N-[4-(amino-methyl)-benzyl]-N-(2-naphthylmethyl)-amide] | 0.153 |
| N=C(N)c1ccc(CCc2nc3cc(C(=O)N(Cc4ccc(CN)cc4)Cc4ccc5ccccc5c4)ccc3n2CC2CC2)cc1 [Example 234, 2-[2-(4-amidinophenyl)ethyl]-1-cyclopropylmethyl-benzimidazol-5-yl-carboxylic acid-N-[4-(amino-methyl)-benzyl]-N-(2-naphthylmethyl)-amide] | 0.76 |
| CCOCCCn1c(CCc2ccc(C(=N)N)cc2)nc2cc(C(=O)N(CCN)Cc3cccc(OC)c3)ccc21 [Example 262, 2-[2-(4-amidinophenyl)ethyl]-1-(3-ethoxypropyl)-benzimidazol-5-yl-carboxylic acid-N-(2-aminoethyl)-N-(3-methoxybenzyl)-amide] | 0.284 |

Same assay, conditions: inhibition of rh beta tryptase at 10 μM test substance; substrate N-p-tosyl-Gly-Pro-Lys-para-nitroaniline 0.6 mM, pH 7.4, 37° C., 5 minutes

| SMILES | % Inhibition (10 μM) [%] | inhibition at 10 µM [%] |
| --- | --- | --- |
| N=C(N)c1ccc(CCc2nc3cc(C(=O)N(Cc4ccc(Cl)cc4)Cc4ccc(CN)cc4)ccc3n2CCCNC(=O)Cc2ccccc2)cc1 [Example 184, 2-[2-(4-amidinophenyl)ethyl]-1-[3-(benzylcarbonylamino)-propyl]-benzimidazol-5-yl-carboxylic acid-N-[4-(amino-methyl)-benzyl]-N-(4-chlorbenzyl)-amide] | 72 | – |
| N=C(N)c1ccc(CCc2nc3cc(C(=O)N(Cc4ccc(Cl)cc4)Cc4ccc(CN)cc4)ccc3n2CC2CC2)cc1 [Example 186, 2-[2-(4-amidinophenyl)ethyl]-1-cyclopropylmethyl-benzimidazol-5-yl-carboxylic acid-N-[4-(amino-methyl)-benzyl]-N-(4-chlorbenzyl)-amide] | 60 | – |
| N=C(N)c1ccc(CCc2nc3cc(C(=O)N(Cc4ccc(Cl)cc4)Cc4ccc(CN)cc4)ccc3n2CCc2ccccc2)cc1 [Example 187, 2-[2-(4-amidinophenyl)ethyl]-1-(2-phenylethyl)-benzimidazol-5-yl-carboxylic acid-N-[4-(amino-methyl)-benzyl]-N-(4-chlorbenzyl)-amide] | 63 | – |
| N=C(N)c1ccc(CCc2nc3cc(C(=O)N(Cc4ccc(Cl)cc4)Cc4ccc(CN)cc4)ccc3n2CCCN2CCOCC2)cc1 [Example 193, 2-[2-(4-amidinophenyl)ethyl]-1-[3-(morpholin-4-yl)-propyl]-benzimidazol-5-yl-carboxylic acid-N-[4-(amino-methyl)-benzyl]-N-(4-chlorbenzyl)-amide] | 59 | – |
| N=C(N)c1ccc(CCc2nc3cc(C(=O)N(Cc4ccc(Cl)cc4)Cc4ccc(CN)cc4)ccc3n2CC2CCCO2)cc1 (stereo not drawn) [Example 194, 2-[2-(4-amidinophenyl)ethyl]-1-(tetrahydrofuran-2-yl-methyl)-benzimidazol-5-yl-carboxylic acid-N-[4-(amino-methyl)-benzyl]-N-(4-chlorbenzyl)-amide] | 61 | – |
| CCOCCCn1c(CCc2ccc(C(=N)N)cc2)nc2cc(C(=O)N(Cc3ccc(CN)cc3)Cc3cccc(C(F)(F)F)c3)ccc21 [Example 198, 2-[2-(4-amidinophenyl)ethyl]-1-(3-ethoxypropyl)-benzimidazol-5-yl-carboxylic acid-N-[4-(amino-methyl)-benzyl]-N-(3-trifluoromethylbenzyl)-amide] | – | 63 |
| N=C(N)c1ccc(CCc2nc3cc(C(=O)N(Cc4ccc(CN)cc4)Cc4cccc(C(F)(F)F)c4)ccc3n2CCCNC(=O)Cc2ccccc2)cc1 [Example 200, 2-[2-(4-amidinophenyl)ethyl]-1-[3-(benzylcarbonylamino)-propyl]-benzimidazol-5-yl-carboxylic acid-N-[4-(amino-methyl)-benzyl]-N-(3-trifluoromethylbenzyl)-amide] | – | 69 |
| N=C(N)c1ccc(CCc2nc3cc(C(=O)N(Cc4ccc(CN)cc4)Cc4cccc(C(F)(F)F)c4)ccc3n2CC2CC2)cc1 [Example 202, 2-[2-(4-amidinophenyl)ethyl]-1-cyclopropylmethyl-benzimidazol-5-yl-carboxylic acid-N-[4-(amino-methyl)-benzyl]-N-(3-trifluoromethylbenzyl)-amide] | – | 58 |
| N=C(N)c1ccc(CCc2nc3cc(C(=O)N(Cc4ccc(CN)cc4)Cc4cccc(C(F)(F)F)c4)ccc3n2CCc2ccccc2)cc1 [Example 203, 2-[2-(4-amidinophenyl)ethyl]-1-(2-phenylethyl)-benzimidazol-5-yl-carboxylic acid-N-[4-(amino-methyl)-benzyl]-N-(3-trifluoromethylbenzyl)-amide] | – | 53 |
| N=C(N)c1ccc(CCc2nc3cc(C(=O)N(Cc4ccc(CN)cc4)Cc4cccc(C(F)(F)F)c4)ccc3n2CCCN2CCOCC2)cc1 [Example 209, 2-[2-(4-amidinophenyl)ethyl]-1-[3-(morpholin-4-yl)-propyl]-benzimidazol-5-yl-carboxylic acid-N-[4-(amino-methyl)-benzyl]-N-(3-trifluoromethylbenzyl)-amide] | – | 61 |
| N=C(N)c1ccc(CCc2nc3cc(C(=O)N(Cc4ccc(CN)cc4)Cc4cccc(C(F)(F)F)c4)ccc3n2CC2CCCO2)cc1 (stereo not drawn) [Example 210, 2-[2-(4-amidinophenyl)ethyl]-1 (tetrahydrofuran-2-yl-methyl)-benzimidazol-5-yl-carboxylic acid-N-[4-(amino-methyl)-benzyl]-N-(3-trifluoromethylbenzyl)-amide] | – | 59 |
| CCOCCCn1c(CCc2ccc(C(=N)N)cc2)nc2cc(C(=O)N(Cc3ccc(CN)cc3)Cc3ccccc3F)ccc21 [Example 214, 2-[2-(4-amidinophenyl)ethyl]-1-(3-ethoxypropyl)-benzimidazol-5-yl-carboxylic acid-N-[4-(amino-methyl)-benzyl]-N-(2-fluorobenzyl)-amide] | – | 54 |
| N=C(N)c1ccc(CCc2nc3cc(C(=O)N(Cc4ccc(CN)cc4)Cc4ccccc4F)ccc3n2CCCNC(=O)Cc2ccccc2)cc1 [Example 216, 2-[2-(4-amidinophenyl)ethyl]-1-[3-(benzylcarbonylamino)-propyl]-benzimidazol-5-yl-carboxylic acid-N-[4-(amino-methyl)-benzyl]-N-(2-fluorobenzyl)-amide] | – | 65 |
| N=C(N)c1ccc(CCc2nc3cc(C(=O)N(Cc4ccc(CN)cc4)Cc4ccccc4F)ccc3n2CCc2ccccc2)cc1 [Example 219, 2-[2-(4-amidinophenyl)ethyl]-1-(2-phenylethyl)-benzimidazol-5-yl-carboxylic acid-N-[4-(amino-methyl)-benzyl]-N-(2-fluorobenzyl)-amide] | – | 51 |
| N=C(N)c1ccc(CCc2nc3cc(C(=O)N(Cc4ccc(CN)cc4)Cc4ccccc4F)ccc3n2CC2CCCO2)cc1 (stereo not drawn) [Example 226, 2-[2-(4-amidinophenyl)ethyl]-1-(tetrahydrofuran-2-yl-methyl)-benzimidazol-5-yl-carboxylic acid-N-[4-(amino-methyl)-benzyl]-N-(2-fluorobenzyl)-amide] | – | 64 |
| CCOCCCn1c(CCc2ccc(C(=N)N)cc2)nc2cc(C(=O)N(Cc3ccc(CN)cc3)Cc3ccc4ccccc4c3)ccc21 [Example 230, 2-[2-(4-amidinophenyl)ethyl]-1-(3-ethoxypropyl)-benzimidazol-5-yl-carboxylic acid-N-[4-(amino-methyl)-benzyl]-N-(2-naphthylmethyl)-amide] | – | 61 |
| CCCCN(CCCC)CCCn1c(CCc2ccc(C(=N)N)cc2)nc2cc(C(=O)N(Cc3ccc(CN)cc3)Cc3ccc4ccccc4c3)ccc21 [Example 231, 2-[2-(4-amidinophenyl)ethyl]-1-(3-di-n-butylaminopropyl)-benzimidazol-5-yl-carboxylic acid-N-[4-(amino-methyl)-benzyl]-N-(2-naphthylmethyl)-amide] | – | 54 |
| N=C(N)c1ccc(CCc2nc3cc(C(=O)N(Cc4ccc(CN)cc4)Cc4ccc5ccccc5c4)ccc3n2CCCNC(=O)Cc2ccccc2)cc1 [Example 232, 2-[2-(4-amidinophenyl)ethyl]-1-[3-(benzylcarbonylamino)-propyl]-benzimidazol-5-yl-carboxylic acid-N-[4-(amino-methyl)-benzyl]-N-(2-naphthylmethyl)-amide] | – | 58 |
| N=C(N)c1ccc(CCc2nc3cc(C(=O)N(Cc4ccc(CN)cc4)Cc4ccc5ccccc5c4)ccc3n2CCC2CCCCC2)cc1 [Example 233, 2-[2-(4-amidinophenyl)ethyl]-1-(2-cyclohexylethyl)-benzimidazol-5-yl-carboxylic acid-N-[4-(amino-methyl)-benzyl]-N-(2-naphthylmethyl)-amide] | – | 53 |
| N=C(N)c1ccc(CCc2nc3cc(C(=O)N(Cc4ccc(CN)cc4)Cc4ccc5ccccc5c4)ccc3n2CCc2ccccc2)cc1 [Example 235, 2-[2-(4-amidinophenyl)ethyl]-1-(2-phenylethyl)-benzimidazol-5-yl-carboxylic acid-N-[4-(amino-methyl)-benzyl]-N-(2-naphthylmethyl)-amide] | – | 52 |
| Cc1ccc(Cn2c(CCc3ccc(C(=N)N)cc3)nc3cc(C(=O)N(Cc4ccc(CN)cc4)Cc4ccc5ccccc5c4)ccc32)cc1 [Example 237, 2-[2-(4-amidinophenyl)ethyl]-1-(4-methylbenzyl)-benzimidazol-5-yl-carboxylic acid-N-[4-(amino-methyl)-benzyl]-N-(2-naphthylmethyl)-amide] | – | 52 |
| N=C(N)c1ccc(CCc2nc3cc(C(=O)N(Cc4ccc(CN)cc4)Cc4ccc5ccccc5c4)ccc3n2CCCN2CCOCC2)cc1 [Example 241, 2-[2-(4-amidinophenyl)ethyl]-1-[3-(morpholin-4-yl)-propyl]-benzimidazol-5-yl-carboxylic acid-N-[4-(amino-methyl)-benzyl]-N-(2-naphthylmethyl)-amide] | – | 69 |
| N=C(N)c1ccc(CCc2nc3cc(C(=O)N(Cc4ccc(CN)cc4)Cc4ccc5ccccc5c4)ccc3n2CC2CCCO2)cc1 (stereo not drawn) [Example 242, 2-[2-(4-amidinophenyl)ethyl]-1-(tetrahydrofuran-2-yl-methyl)-benzimidazol-5-yl-carboxylic acid-N-[4-(amino-methyl)-benzyl]-N-(2-naphthylmethyl)-amide] | – | 63 |
| CCOCCCn1c(CCc2ccc(C(=N)N)cc2)nc2cc(C(=O)N(CCN)Cc3cccc(OC)c3)ccc21 [Example 262, 2-[2-(4-amidinophenyl)ethyl]-1-(3-ethoxypropyl)-benzimidazol-5-yl-carboxylic acid-N-(2-aminoethyl)-N-(3-methoxybenzyl)-amide] | – | 58 |
